Reference: US11365410B2, “Production and monitoring of metabolites in cells” (President and Fellows of Harvard College, priority 2015, dated 2022)

Key:
[1] = tested on: acuR; assay: acuR-based 3HP biosensor induction (indirect, via acrylate); format: cell-based, Rhodobacter sphaeroides; details: acrylate; no helper plasmid
Procedure: Metab Eng, 16, 130-139 hereby incorporated by reference in its entirety). All three reactions are useful for a prpR-based biosensor, but for the acuR-based biosensor, accumulation of acrylyl-CoA rather than propionyl-CoA is necessary. […] Accordingly, the domain responsible for conversion of acrylyl-CoA to propionyl-CoA was removed while preserving the activity of the other two domains. […] A 90-fold increase in fluorescence was obtained when the acuR-based biosensor was induced with 10 mM 3HP. […] Fluorescence remained at background levels for greater than 16 hours in the absence of pcs^Δ3 and ach (see FIG. 17).
Plasmids were constructed using Gibson isothermal assembly methods (see Gibson, D. G., Young, L., Chuang, R. Y., Venter, J. C., Hutchison, C. A., 3rd and Smith, H. O. (2009) Enzymatic assembly of DNA molecules up to several hundred kilobases. Nat Methods, 6, 343-345 hereby incorporated by reference in its entirety) and cloned into DH5α electrocompetent cells purchased from New England Biolabs. Biosynthesis of product molecules was carried out in either BL21 (DE3) or DH5α. The prpR-based 3HP biosensor was implemented as a two-plasmid system. The first plasmid is pPro24-GFP (Addgene plasmid #18880), which expresses GFPuv under the control of the methyl-citrate responsive transcription factor, prpR, on a pBR322 origin of replication providing β-lactam resistance. […]

[2] = target: T1, AcuR (Rhodobacter sphaeroides), regulator sequence SEQ ID NO: 9 (Cereibacter sphaeroides, UniProt Q3J6K8); assay: AcuR biosensor induction (sfGFP reporter, Hill fit); format: cell-based; details: acrylate
T1 construct: expressed in transfected cells; host or cells: E. coli DH5alpha transformed with pJKR-H (high copy) or pJKR-L (low copy) plasmid
T1 sequence (Q3J6K8 1-219): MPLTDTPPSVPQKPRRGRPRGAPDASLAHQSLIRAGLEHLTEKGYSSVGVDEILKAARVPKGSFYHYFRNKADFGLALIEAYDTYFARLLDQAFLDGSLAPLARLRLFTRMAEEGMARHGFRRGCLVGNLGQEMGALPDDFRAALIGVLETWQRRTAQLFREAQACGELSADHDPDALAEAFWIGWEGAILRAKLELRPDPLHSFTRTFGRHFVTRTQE
Text: Plasmids were constructed using Gibson isothermal assembly methods (see Gibson, D. G., Young, L., Chuang, R. Y., Venter, J. C., Hutchison, C. A., 3rd and Smith, H. O. (2009) Enzymatic assembly of DNA molecules up to several hundred kilobases. Nat Methods, 6, 343-345 incorporated herein by reference in its entirety) and transformed into DH5α electrocompetent cells (New England Biolabs, Ipswich Mass.). […] Each inducible system was implemented on high and low copy plasmids. High copy pJKR-H plasmids were constructed with the pUC origin and beta lactamase antibiotic resistance marker derived from pUC19 (New England Biolabs, Ipswich Mass.). Low copy pJKR-L plasmids were constructed in the same way, except that the pUC origin was replaced by the SC101 origin (including repA) from pSC101 obtained from American Type Culture Collection (ATCC #37032). […] In both these plasmids the antibiotic resistance gene and origin of replication were replaced with p15a-aadA and colA-kanR. Each enzyme was cloned downstream of the constitutive promoter P2 (see Mutalik, V. K., Guimaraes, J. C., Cambray, G., Lam, C., Christoffersen, M. J., Mai, Q. A., Tran, A. B., Paull, M., Keasling, J. D., Arkin, A. P. et al. (2013) Precise and reliable gene expression via standard transcription and translation initiation elements. Nat Methods, 10, 354-360 hereby incorporated by reference in its entirety) and g10 RBS to create pJKR-MIOX variants. These expression plasmids used the colA origin of replication and kanamycin resistance gene for maintenance. Sequences and plasmids are available on Addgene (plasmid numbers 62557-62570).
DH5α cells transformed with pJKR plasmids and maintained with carbenicillin were used in the induction assays. For each induction evaluation experiment, the cells were grown overnight to saturation before being diluted 1:100 into fresh LB media and incubated at 200 RPM and 37° C. […] Measurements were made on the same Biotek (Winooksi, Vt.) HT plate reader using the same settings: excitation 485/20, emission 528/20, 37° C. and fast shaking. Fluorescence and absorbance were measured every 10 minutes for 15 hours. Fluorescence was measured in arbitrary units (AFU) while optical density was determined by absorbance (OD). Normalized fluorescence was determined by dividing fluorescence by optical density for a given measurement. […]
The ratio of fluorescence to absorbance at 600 nm was used in order to compensate for changes in cell density over time and between experiments (AFU/OD). […] This transfer function is plotted on a log-log scale in FIG. 1A and FIG. 1B to capture the wide range of inducer concentrations and resulting fluorescence values. […]

[3] = tested on: E. coli DH5α cells; assay: Toxicity of inducer chemicals (growth)
Procedure: Growth rate was measured for each combination of chemical and concentration during the exponential phase of growth. Rates were normalized to the growth rate of cells without any added chemical and plotted as bar height. Concentration of each inducer is indicated in the table, corresponding to the bar chart by order and color. […] Inducer concentrations mirror the concentrations used in the induction experiments.
150 μl of cells were transferred into 96-well plates and the assayed chemical was immediately added in triplicate before further incubation at 600 RPM and 37° C.
Toxicity of the inducer chemicals was measured to help guide the choice of inducer concentration for biosensor applications. In applications where maximum protein production is the goal, toxicity will be less of a consideration. In contrast, sub-toxic induction is important for complex circuits that require the cell to maintain a healthy cell state.

[4] = target: T2, TtgR (Pseudomonas putida), regulator sequence SEQ ID NO: 14 (Pseudomonas putida, UniProt Q9AIU0); details: no test described; cited from earlier work
T2 construct: expressed in transfected cells; host or cells: E. coli DH5alpha transformed with pJKR-H (high copy) or pJKR-L (low copy) plasmid

| SMILES | Response of acrylate biosensor without helper plasmid [1] | Hill Coefficient ([2]; high copy) | Max Expression Velocity ([2]; high copy) [s⁻¹] | Hill Coefficient ([2]; low copy) | Max Expression Velocity ([2]; low copy) [s⁻¹] | Toxicity in induction experiment ([3]; 10 mM acrylate) | Toxicity ([3]; acrylate 5 mM and 10 mM) | Activation of TtgR by chloramphenicol [4] |
| --- | --- | --- | --- | --- | --- | --- | --- | --- |
| C=CC(=O)O [Acrylate, acrylate] | respond to acrylate | 3.2 ± 0.3 | 910 ± 40 | 1.3 ± 0.1 | 150 ± 10 | high toxicity | substantial toxicity |  |
| O=C(N[C@H](CO)[C@H](O)c1ccc([N+](=O)[O-])cc1)C(Cl)Cl [Chloramphenicol, chloramphenicol] |  |  |  |  |  |  |  | activation |
